We go through 24 compounds from patent US11149033B2, “Heteroaryl compound, enantiomer, diastereomer or pharmaceutically acceptable salt thereof, and antiviral composition containing same as active ingredient” (priority 2016, dated 2021).

Data set [1] in a line: in vitro.
The test system of data set [2] is B/Florida/04/2006. The data set can be described thus: Antiviral activity (drug efficacy evaluation by concentration) against B/Florida/04/2006. Format: cell-based, B type influenza virus.
For data set [3], the system named is A/Perth/16/2009 (H3N2). The experiment in a line: Antiviral activity (drug efficacy evaluation by concentration) against A/Perth/16/2009 (H3N2). Format: cell-based, A type influenza virus. To be noted: Influenza A virus.
Data set [4] concerns A/California/07/2009 (H1N1). The experiment in a line: Antiviral activity (drug efficacy evaluation by concentration) against A/California/07/2009 (H1N1). Type of data set: cell-based, A type influenza virus. To be noted: Influenza A virus.
The mark [5] stands for this setting: CC50, third EC50/CC50 column pair (c7), beside the EC50 of c6.
The mark [6] stands for this setting: CC50 B/Florida/04/2006, cytotoxicity in the B/Florida/04/2006 assay.
The mark [7] stands for this setting: read-out: EC50 B/Florida/04/2006, B/Florida/04/2006.
The mark [8] stands for this setting: H3N2, A/Perth/16/2009 (H3N2), read-out: EC50 A/Perth/16/2009 (H3N2).
The mark [9] stands for this setting: H1N1, A/California/07/2009 (H1N1), read-out: EC50 A/California/07/2009 (H1N1).

Where two headings read alike, the source gives them in different places.

Turning to `Cc1cc(C)cc(Cc2nnc(CCc3ccccc3C(C)C)o2)c1` [Compound 94, 2-(3,5-dimethylbenzyl)-5-(2-isopropylphenethyl)-1,3,4-oxadiazole], the CC50 is greater than 50 µM in data set [1] (CC50, beside the EC50 of c2); greater than 50 µM in data set [1] (CC50, beside the EC50 of c4); greater than 50 µM in data set [1] (setting [5]). Also, the EC50 in data set [2] is greater than 50 µM; in data set [3] (H3N2, read-out: EC50) it was 43.4 µM; in data set [4] (H1N1, read-out: EC50) it was 37.8 µM.
As to `Cc1cc(C)n(Cc2nnc(SCc3ccccc3-c3ccccc3)o2)n1` [Compound 5, 2-(([1,1′-biphenyl]-2-ylmethyl)thio)-5-((3,5-dimethyl-1H-pyrazol-1-yl)methyl)-1,3,4-oxadiazole], in data set [1] (setting [6]), the CC50 was greater than 50 µM. Moreover, the figures for the EC50 in data set [2] (setting [7]), in data set [3] (setting [8]) and in data set [4] (setting [9]) were 9.49 µM, 10.7 µM and 8.68 µM, respectively.
The compound `Brc1ccc(NCc2nnc(SCc3ccccc3-c3ccccc3)o2)cc1` [Compound 47, N-((5-(([1,1′-biphenyl]-2-ylmethyl)thio)-1,3,4-oxadiazol-2-yl)methyl)-4-bromoaniline] yielded a CC50 in data set [1] (setting [6]) greater than 50 µM. The EC50 in data set [2] (setting [7]) and in data set [4] (setting [9]) was greater than 50 µM each time.
Turning to `CC(C)c1ccccc1/C=C/c1nnc(Cc2ccc(F)c(Cl)c2)o1` [Compound 131, 2-(3-chloro-4-fluorobenzyl)-5-(2-isopropylstyryl)-1,3,4-oxadiazole], the EC50 in data set [2] was 1.02 µM; in data set [3] (H3N2, read-out: EC50), 0.835 µM; in data set [4] (H1N1, read-out: EC50), 0.927 µM.
As for `c1ccc(-c2cnn(Cc3nnc(SCc4ccccc4-c4ccccc4)o3)c2)cc1` [Compound 30, 2-(([1,1′-biphenyl]-2-ylmethyl)thio)-5-((4-phenyl-1H-pyrazol-1-yl)methyl)-1,3,4-oxadiazole], in data set [1] (setting [6]), the CC50 was greater than 50 µM. Also, the EC50 in data set [2] (setting [7]) is greater than 50 µM; in data set [3] (setting [8]), 13 µM; in data set [4] (setting [9]), greater than 50 µM.
Regarding `C/C(=C\c1ccccc1C)c1nnc(Cc2ccc(Br)cc2)o1` [Compound 144, 2-(4-bromobenzyl)-5-(1-(o-tolyl)prop-1-en-2-yl)-1,3,4-oxadiazole], the CC50 is greater than 50 µM in data set [1] (CC50, beside the EC50 of c2); greater than 50 µM in data set [1] (CC50, beside the EC50 of c4); greater than 50 µM in data set [1] (setting [5]). In addition, the EC50 is greater than 50 µM in data set [2]; 49.3 µM in data set [3] (H3N2, read-out: EC50); 48.7 µM in data set [4] (H1N1, read-out: EC50).
Take `COC(c1ccccc1)c1nnc(SCc2ccccc2-c2ccccc2)o1` (centres unmarked) [Compound 97, 2-(([1,1′-biphenyl]-2-ylmethyl)thio)-5-(methoxy(phenyl)methyl)-1,3,4-oxadiazole]: the CC50 turned out to be 6.08 µM in data set [1] (CC50, beside the EC50 of c2); 6.2 µM in data set [1] (CC50, beside the EC50 of c4); 6 µM in data set [1] (setting [5]). Moreover, the EC50 in data set [2] was 2.53 µM; in data set [3] (H3N2, read-out: EC50), 5.9 µM; in data set [4] (H1N1, read-out: EC50), 4.4 µM.
In data set [1] (setting [6]), `c1ccc(-c2ccccc2CSc2nnc(Cc3ccccn3)o2)cc1` [Compound 27, 2-(([1,1′-biphenyl]-2-ylmethyl)thio)-5-(pyridin-2-ylmethyl)-1,3,4-oxadiazole] registered a CC50 greater than 50 µM. Further, the EC50 in data set [2] (setting [7]) was found to be 13.4 µM; in data set [3] (setting [8]), 6.8 µM; in data set [4] (setting [9]), 8.7 µM.
The matching figures for `Cc1nn(Cc2nnc(SCc3ccccc3-c3ccccc3)o2)c(C)c1Cl` [Compound 7, 2-(([1,1′-biphenyl]-2-ylmethyl)thio)-5-((4-chloro-3,5-dimethyl-1H-pyrazol-1-yl)methyl)-1,3,4-oxadiazole]: greater than 50 µM, 1.11 µM, 1.89 µM and 1.26 µM.
The matching figures for `Cc1ccccc1CCSc1nnc(Cn2nc(C)c(Br)c2C)o1` [Compound 26, 2-((4-bromo-3,5-dimethyl-1H-pyrazol-1-yl)methyl)-5-((2-methylphenethyl)thio)-1,3,4-oxadiazole]: greater than 50 µM, 36.2 µM, 29.4 µM and 31.2 µM.
The matching figures for `Brc1ccc(Cc2nnc(SCc3ccccc3-c3ccccc3)o2)cc1` [Compound 22, 2-(([1,1′-biphenyl]-2-ylmethyl)thio)-5-(4-bromobenzyl)-1,3,4-oxadiazole]: greater than 50 µM, 4.88 µM, 5 µM and 4.9 µM.
`Fc1ccc(/C=C/c2nnc(Cc3ccc(Cl)c(Cl)c3)o2)c(Cl)c1` [Compound 208, 2-(2-chloro-4-fluorostyryl)-5-(3,4-dichlorobenzyl)-1,3,4-oxadiazole]: the melting point came out at 179.9 °C. This compound yielded a CC50 in data set [1] (CC50, beside the EC50 of c2) greater than 50 µM. For the same compound, the CC50 in data set [1] (CC50, beside the EC50 of c4) was greater than 50 µM. For the same compound, the CC50 in data set [1] (setting [5]) was greater than 50 µM. The EC50 in data set [2] was determined as 1.19 µM. The EC50 in data set [3] (H3N2, read-out: EC50) is 0.72 µM.
In turn, `COc1cccc(Cc2nnc(/C=C/c3ccc(F)cc3Cl)o2)c1` [Compound 202, (E)-2-(2-chloro-4-fluorostyryl)-5-(3-methoxybenzyl)-1,3,4-oxadiazole] returned a melting point of 131.7 °C. In addition, in data set [1] (CC50, beside the EC50 of c2), the CC50 is greater than 50 µM. Moreover, the CC50 in data set [1] (CC50, beside the EC50 of c4) was greater than 50 µM. The CC50 in data set [1] (setting [5]) is greater than 50 µM. In data set [2], this compound came in with an EC50 greater than 50 µM. Besides, the EC50 in data set [3] (H3N2, read-out: EC50) is greater than 50 µM.
For the compound `CCn1c(Cn2nc(C)c(Br)c2C)nnc1SCc1ccccc1-c1ccccc1` [Compound 24, 3-(([1,1′-biphenyl]-2-ylmethyl)thio)-5-((4-bromo-3,5-dimethyl-1H-pyrazol-1-yl)methyl)-4-ethyl-4H-1,2,4-triazole], the melting point came out at 137.8 °C. The compound also yielded a CC50 in data set [1] (setting [6]) greater than 50 µM. The EC50 in data set [2] (setting [7]) was greater than 50 µM. Besides, the EC50 in data set [3] (setting [8]) is greater than 50 µM.
As to `Cc1ncccc1/C=C/c1nnc(Cc2cccc(Br)c2)o1` [Compound 204, (E)-2-(3-bromobenzyl)-5-(2-(2-methylpyridin-3-yl)vinyl)-1,3,4-oxadiazole], the CC50 in data set [1] (CC50, beside the EC50 of c2) was greater than 50 µM; in data set [1] (CC50, beside the EC50 of c4) it was greater than 50 µM; in data set [1] (setting [5]), greater than 50 µM. Further, in data set [2], the EC50 amounted to 2.5 µM.
Consider `CC(C)c1ccccc1/C=C/c1nnc(Cc2ccc(Br)cc2)o1` [Compound 82, (E)-2-(4-bromobenzyl)-5-(2-isopropylstyryl)-1,3,4-oxadiazole], for which the melting point is 91.6 °C. Moreover, the CC50 in data set [1] (CC50, beside the EC50 of c2) was greater than 50 µM. For the same compound, the CC50 in data set [1] (CC50, beside the EC50 of c4) was greater than 50 µM. In addition, the CC50 in data set [1] (setting [5]) is greater than 50 µM. Moreover, the EC50 in data set [2] is greater than 50 µM.
In the case of `Fc1ccc(/C=C/c2nnc(Nc3ccc(Br)c(F)c3)o2)c(Cl)c1` [Compound 160, (E)-N-(4-bromo-3-fluorophenyl)-5-(2-chloro-4-fluorostyryl)-1,3,4-oxadiazol-2-amine], the melting point came to 195.7 °C. Further, the CC50 in data set [1] (CC50, beside the EC50 of c2) was greater than 50 µM. Moreover, the CC50 in data set [1] (CC50, beside the EC50 of c4) is greater than 50 µM. This compound also yielded a CC50 in data set [1] (setting [5]) greater than 50 µM. For the same compound, in data set [3] (H3N2, read-out: EC50), the EC50 was greater than 50 µM. Also, the EC50 in data set [4] (H1N1, read-out: EC50) is greater than 50 µM.
Take `Cc1ccccc1CCc1nnc(Nc2ccc(Br)cc2)o1` [Compound 89, N-(4-bromophenyl)-5-(2-methylphenethyl)-1,3,4-oxadiazol-2-amine]: the melting point came to 153.5 °C. Further, in data set [1] (CC50, beside the EC50 of c2), the CC50 is greater than 50 µM. Further, the CC50 in data set [1] (CC50, beside the EC50 of c4) was greater than 50 µM. This compound had a CC50 in data set [1] (setting [5]) greater than 50 µM. The EC50 in data set [3] (H3N2, read-out: EC50) worked out at 48.4 µM. The EC50 in data set [4] (H1N1, read-out: EC50) was greater than 50 µM.
For `Cc1nn(Cc2nnc(SCc3ccncc3-c3ccccc3)o2)c(C)c1Br` [Compound 16, 2-((4-bromo-3,5-dimethyl-1H-pyrazol-1-yl)methyl)-5-(((3-phenylpyridin-4-yl)methyl)thio)-1,3,4-oxadiazole], in data set [1] (setting [6]), the CC50 is greater than 50 µM. For the same compound, the EC50 in data set [2] (setting [7]) and in data set [3] (setting [8]) was greater than 50 µM throughout.
The compound `FC(F)(F)c1cccc(/C=C/c2nnc(Cc3ccc(Br)cc3)o2)c1Cl` [Compound 152, 2-(4-bromobenzyl)-5-(2-chloro-3-(trifluoromethyl)styryl)-1,3,4-oxadiazole] registered a melting point of 118.9 °C. In data set [1] (CC50, beside the EC50 of c2), the CC50 is greater than 50 µM. Also, the CC50 in data set [1] (CC50, beside the EC50 of c4) was greater than 50 µM. In data set [1] (setting [5]), this compound had a CC50 greater than 50 µM. Also, the EC50 in data set [2] is greater than 50 µM. Moreover, the EC50 in data set [3] (H3N2, read-out: EC50) is greater than 50 µM.
With `Cc1ccc(Cc2nnc(/C=C/c3ccccc3C(C)C)o2)cc1Br` [Compound 145, 2-(3-bromo-4-methylbenzyl)-5-(2-isopropylstyryl)-1,3,4-oxadiazole], the melting point was 111.2 °C. This compound displayed a CC50 in data set [1] (CC50, beside the EC50 of c2) greater than 50 µM. In data set [1] (CC50, beside the EC50 of c4), this compound yielded a CC50 greater than 50 µM. In data set [1] (setting [5]), this compound gave a CC50 greater than 50 µM. The compound further registered an EC50 in data set [2] greater than 50 µM. Moreover, the EC50 in data set [3] (H3N2, read-out: EC50) was 49.1 µM.
In the case of `Fc1ccc(/C=C/c2nnc(Cc3ccc(F)c(Cl)c3)o2)c(Cl)c1` [Compound 159, (E)-2-(3-chloro-4-fluorobenzyl)-5-(2-chloro-4-fluorostyryl)-1,3,4-oxadiazole], the melting point is 142.2 °C. The CC50 in data set [1] (CC50, beside the EC50 of c2) was greater than 50 µM. For the same compound, the CC50 in data set [1] (CC50, beside the EC50 of c4) was greater than 50 µM. The CC50 in data set [1] (setting [5]) was greater than 50 µM. In addition, the EC50 in data set [3] (H3N2, read-out: EC50) was found to be 39.7 µM. Further, the EC50 in data set [4] (H1N1, read-out: EC50) was greater than 50 µM.
Compound `CC(C)c1ccc(/C=C/c2nnc(Cc3ccc(Br)cc3)o2)cc1` [Compound 154, 2-(4-bromobenzyl)-5-(4-isopropylstyryl)-1,3,4-oxadiazole] gave a melting point of 139.8 °C. The same compound gave a CC50 in data set [1] (CC50, beside the EC50 of c2) greater than 50 µM. In addition, the CC50 in data set [1] (CC50, beside the EC50 of c4) was greater than 50 µM. This compound also came in with a CC50 in data set [1] (setting [5]) greater than 50 µM. In data set [2], this compound displayed an EC50 greater than 50 µM.
Take `Fc1ccc(/C=C/c2nnc(Cc3cc(Cl)ccn3)o2)c(Cl)c1` [Compound 206, (E)-2-(2-chloro-4-fluorostyryl)-5-((4-chloropyridin-2-yl)methyl)-1,3,4-oxadiazole]: the CC50 in data set [1] (CC50, beside the EC50 of c2) was greater than 50 µM; in data set [1] (CC50, beside the EC50 of c4), greater than 50 µM; in data set [1] (setting [5]), greater than 50 µM. Moreover, the EC50 in data set [2] was found to be 2.26 µM; in data set [3] (H3N2, read-out: EC50), 1.28 µM.

For orientation: melting point means the temperature, or range, at which the solid turns liquid.
